Tested on: Myc-CAP-PTEN^−/− cells
Assay: Myc-CAP-PTEN−/− cells in vitro (western blotting, cytokine array)
Format: cell-based, mouse
Conditions: 24 hours
Method: FIGS. 35A-35D. […] (35A) Myc-CAP-PTEN^−/− cells were treated with copanlisib […] (IC90 concentration) in vitro for 24 hours, and protein extracts were harvested for western blotting analysis with the indicated antibodies to analyze PI3K activation. (35B) Supernatants from (35A) were harvested for cytokine array profiling. n=3 independent in vitro experiments. (35C) Mice bearing Myc-CAP-PTEN^−/− established syngeneic tumors (200 mm^3) were treated with copanlisib (14 mg/kg, every other day, until tumors reached 2000 mm^3). Tumor volumes were monitored daily and graphed. (35D) At the end of treatment, tumors were analyzed by flow cytometry for tumor infiltrating immune cell subsets. n=5 mice per group.
FIGS. 49A and 49B. PTEN-deficient cancer cells have diminished STING expression that can be restored by […] and pan-PI3K inhibitors. (49A) Isogenic MC38, Myc-CAP, ID8, and TRAMP cells (−/+ PTEN) were analyzed for STING mRNA and protein expression by qRT-PCR and western blotting, respectively. (49B) Myc-CAP-PTEN^−/− cells were treated with GSK′771 (PI3Kβ-selective inhibitor, 1 μM) or BKM120 (pan-PI3K inhibitor, 1 μM) for 24 hours, and proteins were analyzed for STING expression and PI3K activation by western blotting.
Cancer Cell Lines and in vitro drug treatments. Transgenic c-myc^hi prostate tumor derived cell line, Myc-CAP and TRAMPC1, ovarian cancer cell line ID8 and murine colon adenocarcinoma line MC38 were obtained from the American Type Culture Collection (ATCC) and passaged in either 1×RPMI/1×DMEM (with phenol) or 1×DMEM (without phenol red) containing 10% fetal bovine serum, 1% penicillin-streptomycin, 2% L-glutamine and 1×ITS. ID8^pten−/−p53−/−cells were a kind gift from Dr. Ian McNeish (Imperial College, London). For generation of STING over expressing cell lines −Myc-CAP^pten+/+ and ID8^pten−/− cells were transfected with commercial available plasmid (DC-Mm22462-SH02, Genecoepia™), sorted and expanded as per protocol. […]

Compound	STING expression (western blotting) (1 μM)	CXCL1 production (copanlisib 100 nm, cytokine array)
Nc1cc(C(F)(F)F)c(-c2cc(N3CCOCC3)nc(N3CCOCC3)n2)cn1 [buparlisib]	restored	–
COc1c(OCCCN2CCOCC2)ccc2c1N=C(NC(=O)c1cnc(N)nc1)N1CCN=C21 [copanlisib]	–	decreasing CXCL1 production

— patent publication US20210017607A1, “Methods of Predicting Responsiveness to Cancer Therapies” (The University of Chicago, priority 2019, published 2021)
